# In publication PMC9768319 (iScience, 2022):
# Where two headings read alike, the source gives them in different places.
# Assays:
# [1] = test system: KPC1242 cells; assay: Ki-67 proliferation staining; assay type: cell-based, murine; details: KPC1242, 24-h treatment, MMe 0.7 μM or pCF3-MMe 3 μM
# [2] = test system: AsPC-1 cells; assay: TMRE retention by flow cytometry; assay type: cell-based, human; details: AsPC-1, serum-starved, 1 h treatment
# [3] = test system: HPSC cells; assay: TMRE retention by flow cytometry; assay type: cell-based, human; details: serum-starved, 1 h treatment
# [4] = test system: KPC1242 cells; assay: Luminescent ATP detection assay; assay type: cell-based, murine; details: KPC1242, 24 h, 0.7 μM MMe or 3 μM pCF3-MMe
# [5] = test system: AMP-Activated Protein Kinase (AMPK); assay: AMPK Thr172 phosphorylation immunoblot; assay type: cell-based, murine; details: KPC1242, 0.7 μM MMe or 3 μM pCF3-MMe
# [6] = Tolerability, single intra-peritoneal injection in non-tumor-bearing mice; assay type: in vivo
# [7] = Tolerability, daily injection for 5 consecutive days in non-tumor-bearing mice; assay type: in vivo; details: daily for 5 consecutive days, 25 μg/mouse to 1 mg/mouse
# [8] = test system: HPNE and HPSC cells; assay type: cell-based, human; details: for sensitivity of normal, non-transformed cells compared to cancer cells: HPNE and HPSC vs cancer cells
# [9] = test system: cancer cells (KPC1242, Panc-1, AsPC-1, HCT-116, MDA-MB-231, OVCAR-4, OVCAR-8); assay: Cell confluence across the battery of cancer cell lines; assay type: cell-based; details: escalating concentrations (0.1 µM-10 µM)
# [10] = test system: pancreatic, breast, and colon cancers; details: cited from earlier work
# [11] = after administration; cited from earlier work
# [12] = assay type: in vivo, mice
# [13] = test system: Panc-1 cells; assay: Cell confluence growth inhibition; assay type: cell-based, human
Structure (SMILES),reduction in Ki-67 levels [1],TMRE accumulation within mitochondria [2],TMRE accumulation within mitochondria [3],Levels of ATP [4],AMPK activation (Thr172 phosphorylation) [5],tolerability of repeated injection [7],"sensitivity of normal, non-transformed cells compared to cancer cells [8]",cell confluency [9],reduction in toxicity to normal cells compared to MMe [8] [fold],further results
"N=C(N)NC(=N)NCCCCCCCCCC[P+](c1ccccc1)(c1ccccc1)c1ccccc1.[Br-] [MMe, 10-[(carbamimidamidomethanimidoyl)amino]decyl-triphenylphosphonium bromide]",20-30%,significantly reduced TMRE accumulation,did not affect TMRE accumulation,significantly reduced,significant increase in AMPK activation,succumbed to 4-fold lower doses,more than a log-unit less sensitive,decreased in a concentration-dependent manner,,mortality after single injection ([6]; single intra-peritoneal injection of 250 μg or 1 mg): significant and rapid mortality; fold more efficacious compared to metformin [10]: 100- to 1000 fold
COC1=C(OC)C(=O)C(CCCCCCCCCC[P+](c2ccccc2)(c2ccccc2)c2ccccc2)=C(C)C1=O [MitoQ],,,,,,,,,,half-life [11]: ~30 min
"N=C(N)NC(=N)NCCCCCCCCCC[P+](c1cccc(C(F)(F)F)c1)(c1cccc(C(F)(F)F)c1)c1cccc(C(F)(F)F)c1.[Br-] [mCF3-MMe, (10-(3-carbamimidoylguanidino)decyl)tris(3-(trifluoromethyl)phenyl)phosphonium bromide]",,,,,,,more than a log-unit less sensitive,decreased in a concentration-dependent manner,~10,
"N=C(N)NC(=N)NCCCCCCCCCC[P+](c1ccc(C(F)(F)F)cc1)(c1ccc(C(F)(F)F)cc1)c1ccc(C(F)(F)F)cc1.[Br-] [pCF3-MMe, (10-(3-carbamimidoylguanidino)decyl)tris(4-(trifluoromethyl)phenyl)phosphonium bromide]",20-30%,significantly reduced TMRE accumulation,did not affect TMRE accumulation,significantly reduced,significant increase in AMPK activation,tolerated a 1 mg dose,more than a log-unit less sensitive,decreased in a concentration-dependent manner,~10,"detection in the blood and liver ([12]; 2 h after intra-tumoral injection of 1 mg): undetectable; detection in the blood and liver ([12]; 6 h after injection (not shown)): barely detectable above the signal-to-noise ratio; levels within the tumors ([12]; 24 h after injection, 1 mg/mouse): measurable levels; mice surviving ([6]; single intra-peritoneal injection of 1 mg): 100%; toxic effects toward non-transformed HPNE and HPSC-1 cells ([8]; compared to parent MMe and mCF3-MMe): least toxic effects"
"COc1ccc([P+](CCCCCCCCCCNC(=N)CC(=N)N)(c2ccc(OC)cc2)c2ccc(OC)cc2)cc1.[Br-] [pMeO-MMe, [10-(2-carbamimidoylethanimidamido)decyl]tris(4-methoxyphenyl)phosphonium bromide]",,,,,,,,,,"confluence of human pancreatic cancer cells ([13]; Panc-1 (Figure S5), escalating concentrations): concentration-dependent decrease in confluence; efficacy in pancreas cancer cells ([13]; in contrast to the fluorinated compound): lower efficacy"
